Experimental data reported in patent publication US6747021B2, “Cryptophycin compound” (Eli Lilly and Company, priority 2000, dated 2004).
Where two headings read alike, the source gives them in different places.

What was measured:
[1] = test system: COLON ADENOCARCINOMA 51/A; test: Early stage murine colon adenocarcinoma 51/A subcutaneous tumor assay; type: in vivo; conditions: IV 28 mg/kg/inj days 3,5,7,9,11; total dose 140 mg/kg; CDF female mice
Description: (§1) Inhibition of tumors transplanted into mice is an accepted procedure for studying the efficacy of antitumor agents (Corbett, et al., In vivo Methods for Screening and Preclinical Testing; Use of rodent solid tumors for drug discovery., In: Anticancer Drug Development Guide: Preclinical Screening, Clinical Trials, and Approval, B. Teicher (ed), Humana Press Inc., Totowa, N.J., Chapter 5, pages 75-99 (1997); (Corbett, et al., Int. J. Pharmacog., 33, Supplement, 102-122 (1995)). Murine tumors or human xenographs were implanted essentially as described by Corbett in In vivo Methods for Screening and Preclinical Testing; Use of rodent solid tumors for drug discovery. Briefly, the murine tumor or human xenograph was implanted subcutaneously using either 12-gauge trocar implants or counted number of cells. The location for the trocar insertion is midway between the axillary and inguinal region along the side of the mouse. The trocar is slipped approximately ¾ of an inch subcutaneously up toward the axilla before discharging the tumor fragment, and pinching the skin as the trocar is removed. Alternatively, human tumor cells prepared from a […] of donor tumors (5×10^6 cells) were implanted subcutaneously in a hind-leg of a male or female nude mouse (Charles River). Either a test compound in vehicle or vehicle alone was administered by intravenous bolus injection (iv), intraperitoneal injection (ip), or oral gavage (po). Each treatment group, as well as a group of untreated control animals, consisted of five animals per group in each experiment. Subcutaneous tumor response was monitored by tumor volume measurement performed twice each week over the course of the experiment (60-120 days). Body weights were taken as a general measure of toxicity. The subcutaneous tumor data were analyzed by determining the median tumor weight for each treatment group over the course of the experiment and calculating the tumor growth delay as the difference in days for the treatment versus the control tumors to reach a volume of either 500 or 1000 mm^3.
(§2) Cryptophycin-309 (309) was tested against a variety of murine and human tumors substantially as described supra. Cryptophycin-55 glycinate (55-GLY), Taxol, and Adriamycin (Adria) were also included in certain tests for purposes of comparison. Cryptophycin 55 glycinate is known in the art (WO 98/08505, Example 9) and has the following structure: [drawing 9]
(§3) Tumor Weight(mg)=(a×b^2)/2 where a=tumor length (mm) and b=tumor width (mm).
(§4) Tumor Growth Delay=T−C where T is the median time (days) required for the treatment group tumors to reach a predetermined size, and C is the median time (days) for the control group tumors to reach the same size. Tumor-free survivors are excluded from this calculation, and are tabulated separately (Tumor Free).
(§5) Log Kill=Tumor Growth Delay/(3.32)(Td)
(§6) where Tumor Growth Delay is as previously defined and Td is tumor volume doubling time (days), estimated from the best fit straight line from a log-linear growth plot of the control group of tumors in exponential growth (100-800 mg range)
(§7) %T/C mass—The treatment and control groups are measured when the control group tumors reach approximately 700 to 1200 mg in size (median group). The median tumor weight of each group is determined (including zeros). The T/C value in percent is an indication of antitumor effectiveness. A T/C≦42% is considered significant antitumor activity. A T/C<10% is considered to indicate highly significant antitumor activity.
(§8) Body Weight Loss Nadir—A body weight loss nadir (mean of group) of greater than 20% or drug deaths greater than 20% are considered to indicate an excessively toxic dosage in single course trials.
(§9) Activity Rating—the Activity Rating is derived from the Log Kill according to the following table: […]

[2] = test system: HUMAN COLON ADENOCARCINOMA 15; type: in vivo; conditions: Balb/C SCID female mice
Description: as §1, §2, §3, §4, §5, §6, §7, §8, §9

[3] = Toxicity relative to other cryptophycins (general statement); conditions: compared with other cryptophycins; no test described
[4] = test system: MAMMARY ADENOCARCINOMA-16/C/Adr; test: Early stage murine mammary adenocarcinoma-16/C/Adr subcutaneous tumor assay; type: in vivo; conditions: IV 20 mg/kg/inj days 1,3,5,7,9; total dose 100 mg/kg; C3H female mice
Description: as §1, §2, §3, §4, §5, §6, §7, §8, §9

[5] = IV 16.5 mg/kg/inj days 3,5,7,9,11, total dose 82.5 mg/kg
[6] = IV 25 mg/kg/inj days 3,5,7,9,11, total dose 125 mg/kg
[7] = IV 38 mg/kg/inj days 3,5,7,9,11, total dose 190 mg/kg

COc1ccc(C[C@H]2NC(=O)/C=C/C[C@@H]([C@H](C)[C@@H](OC(=O)CN)[C@@H](Cl)c3ccccc3)OC(=O)[C@H](CC(C)(C)C)OC(=O)[C@H](C)CNC2=O)cc1Cl [Cryptophycin 309, Cryptophycin-309]
% T/C MASS [1]: 0%
ACTIVITY RATING [1]: +++ (2.0-2.8)
DRUG DEATHS [1]: 0/6
GROWTH DELAY [1]: 20.1 days
LOG KILL [1]: 2.4
MEDIAN TUMOR WEIGHT [1]: 0 mg
% T/C MASS [2, 5]: 11%
ACTIVITY RATING [2, 5]: +++ (2.0-2.8)
DRUG DEATHS [2, 5]: 0/5
GROWTH DELAY [2, 5]: 24.5 days
LOG KILL [2, 5]: 2.5
MEDIAN TUMOR WEIGHT [2, 5]: 126 mg
% T/C MASS [2, 6]: 0%
ACTIVITY RATING [2, 6]: ++++ (>2.8)
DRUG DEATHS [2, 6]: 0/5
GROWTH DELAY [2, 6]: 31.5 days
LOG KILL [2, 6]: 3.2
MEDIAN TUMOR WEIGHT [2, 6]: 0 mg
% T/C MASS [2, 7]: 0%
ACTIVITY RATING [2, 7]: ++++ (>2.8)
DRUG DEATHS [2, 7]: 0/5
GROWTH DELAY [2, 7]: 32.5 days
LOG KILL [2, 7]: 3.3
MEDIAN TUMOR WEIGHT [2, 7]: 0 mg
toxicity [3]: lower toxicity than other cryptophycins
% T/C MASS [4]: 0%
ACTIVITY RATING [4]: ++++ (>2.8)
DRUG DEATHS [4]: 0/5
GROWTH DELAY [4]: 11 days
LOG KILL [4]: 3.0
MEDIAN TUMOR WEIGHT [4]: 0 mg
